Reference: patent US9527832B2, “Substituted condensed pyrimidine compounds” (GRÜNENTHAL GMBH, priority 2013, dated 2016)

Target: T1, human PDE4B1 (Homo sapiens, UniProt Q07343)
T1 construct: host or cells: Sf9 cells
Experiment: cAMP HTRF assay to determine the activity of hPDE4B1
Type: biochemical
Details: for inhibition at 1 µM / Inhibition at 1 μM test concentration [%]: Percentage inhibition of PDE4B at 1 μM test concentration; for IC50: dose response measurements with eight concentrations, reported as ranges, read-out: IC50
In short: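 Sf9-expressed recombinant human PDE4B1 (4.8 U) in Tris-HCl/MgCl2/DTT/Tween 20 buffer pH 7.8, with cAMP at 40 nM final, 30 min at room temperature. Reaction stopped with IBMX 1 mM; remaining cAMP detected by HTRF (665/620 nm ratio). IC50 from eight-point dose-response, n=2.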

T1 sequence (Q07343 whole entry): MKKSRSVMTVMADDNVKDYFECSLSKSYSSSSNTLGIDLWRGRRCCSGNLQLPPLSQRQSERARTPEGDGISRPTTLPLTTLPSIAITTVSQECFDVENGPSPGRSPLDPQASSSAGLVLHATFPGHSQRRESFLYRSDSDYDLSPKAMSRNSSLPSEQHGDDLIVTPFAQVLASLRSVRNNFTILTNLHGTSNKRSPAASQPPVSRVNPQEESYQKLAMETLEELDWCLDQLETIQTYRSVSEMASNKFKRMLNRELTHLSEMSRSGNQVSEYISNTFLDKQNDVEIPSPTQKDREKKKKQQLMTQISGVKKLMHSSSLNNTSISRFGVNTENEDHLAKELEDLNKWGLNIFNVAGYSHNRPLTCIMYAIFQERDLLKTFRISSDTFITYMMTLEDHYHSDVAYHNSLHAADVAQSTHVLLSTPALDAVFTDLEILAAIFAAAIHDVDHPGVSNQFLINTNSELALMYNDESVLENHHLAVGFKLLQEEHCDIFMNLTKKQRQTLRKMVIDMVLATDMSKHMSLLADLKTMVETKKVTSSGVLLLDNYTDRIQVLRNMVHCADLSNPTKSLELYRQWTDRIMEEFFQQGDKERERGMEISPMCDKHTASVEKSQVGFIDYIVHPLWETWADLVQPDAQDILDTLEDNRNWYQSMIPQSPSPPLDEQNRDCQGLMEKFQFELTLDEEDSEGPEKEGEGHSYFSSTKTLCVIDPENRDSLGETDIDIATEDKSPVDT

| Structure (SMILES) | inhibition at 1 µM | IC50 | Inhibition at 1 μM test concentration [%] |
| --- | --- | --- | --- |
| O=C(O)Cc1ccc2c(c1)CCN2c1nc(-c2cc(Cl)cs2)nc2c1CCC2 [Compound No. 1-18, 2-(1-(2-(4-Chlorothiophen-2-yl)-6,7-dihydro-5H-cyclopenta[d]pyrimidin-4-yl)indolin-5-yl)acetic acid] | 92% | < 100 nM |  |
| O=C(O)Cc1ccc2c(c1)CCN2c1nc(-c2csc(Cl)c2)nc2c1CCC2 [Compound No. 1-19, 2-(1-(2-(5-Chlorothiophen-3-yl)-6,7-dihydro-5H-cyclopenta[d]pyrimidin-4-yl)indolin-5-yl)acetic acid] | 85% | < 100 nM |  |
| O=C(O)Cc1ccc2c(c1)CCN2c1nc(-c2ccc(Cl)s2)nc2c1CSC2 [Compound No. 1-20, 2-(1-(2-(5-Chlorothiophen-2-yl)-5,7-dihydrothieno[3,4-d]pyrimidin-4-yl)indolin-5-yl)acetic acid] | 92% | < 100 nM |  |
| O=C(O)Cc1ccc2c(c1)CCN2c1nc(-c2ccc(Cl)s2)nc2c1C[S+]([O-])C2 (stereo not shown) [Compound No. 1-21, 2-(1-(2-(5-Chlor-thiophen-2-yl)-6-oxo-5,7-dihydro-thieno[3,4-d]pyrimidin-4-yl)-2,3-dihydro-1H-indol-5-yl)acetic acid] |  |  | 88% |
| O=C(O)Cc1ccc2c(c1)CCN2c1nc(-c2ccc(Cl)s2)nc2c1CS(=O)(=O)C2 [Compound No. 1-22, 2-(1-(2-(5-Chlor-thiophen-2-yl)-6,6-dioxo-5,7-dihydro-thieno[3,4-d]pyrimidin-4-yl)-2,3-dihydro-1H-indol-5-yl)acetic acid] |  |  | 115% |
| O=C(O)Cc1ccc2c(c1)CCN2c1nc(-c2ccc(F)s2)nc2c1CSC2 [Compound No. 1-23, 2-(1-(2-(5-Fluorothiophen-2-yl)-5,7-dihydrothieno[3,4-d]pyrimidin-4-yl)indolin-5-yl)acetic acid] | 93% | < 100 nM |  |
| O=C(O)Cc1ccc2c(c1)CCN2c1nc(-c2ccc(F)s2)nc2c1C[S+]([O-])C2 (stereo not shown) [Compound No. 1-24, 2-(1-(2-(5-Fluorothiophen-2-yl)-6-oxido-5,7-dihydrothieno[3,4-d]pyrimidin-4-yl)indolin-5-yl)acetic acid] | 111% | < 100 nM |  |
| O=C(O)Cc1ccc2c(c1)CCN2c1nc(-c2ccc(F)s2)nc2c1CS(=O)(=O)C2 [Compound No. 1-25, 2-(1-(2-(5-Fluoro-thiophen-2-yl)-6,6-dioxo-5,7-dihydro-thieno[3,4-d]pyrimidin-4-yl)-2,3-dihydro-1H-indol-5-yl)acetic acid] | 103% | < 100 nM |  |
| COc1ccc(-c2nc3c(c(N4CCc5cc(CC(=O)O)ccc54)n2)CCCC3)cc1Cl [Compound No. 1-39, 2-(1-(2-(3-Chloro-4-methoxyphenyl)-5,6,7,8-tetrahydroqiuinazolin-4-yl)indolin-5-yl)acetic acid] | 63% | 100 to 1000 nM |  |
| O=C(O)Cc1ccc2c(c1)CCN2c1nc(-c2ccc(Cl)s2)nc2c1CCCC2 [Compound No. 1-50, 2-(1-(2-(5-Chlorothiophen-2-yl)-5,6,7,8-tetrahydroquinazolin-4-yl)indolin-5-yl)acetic acid] | 76% | 100 to 1000 nM |  |
| COc1ccc(-c2nc3c(c(-n4ncc5cc(CC(=O)O)ccc54)n2)CCC3)cc1Cl [Compound No. 1-59, 2-(1-(2-(3-Chloro-4-methoxyphenyl)-6,7-dihydro-5H-cyclopenta[d]-pyrimidin-4-yl)-1H-indazol-5-yl)acetic acid] | 38% |  |  |
| COc1ccc(-c2nc3c(c(-n4ncc5cc(CC(=O)O)ccc54)n2)CCC3)cc1F [Compound No. 1-60, 2-(1-(2-(3-Fluoro-4-methoxyphenyl)-6,7-dihydro-5H-cyclopenta[d]-pyrimidin-4-yl)-1H-indazol-5-yl)acetic acid] | 67% | 100 to 1000 nM |  |
| O=C(O)Cc1ccc2c(cnn2-c2nc(-c3ccc(Cl)s3)nc3c2CCC3)c1 [Compound No. 1-61, 2-(1-(2-(5-Chlorothiophen-2-yl)-6,7-dihydro-5H-cyclopenta[d]-pyrimidin-4-yl)-1H-indazol-5-yl)acetic acid] | 82% | 100 to 1000 nM |  |
| O=C(O)Cc1ccc2c(c1)CC(=O)N2c1nc(-c2ccc(Cl)s2)nc2c1CCC2 [Compound No. 1-64, 2-(1-(2-(5-Chlorothiophen-2-yl)-6,7-dihydro-5H-cyclopenta[d]-pyrimidin-4-yl)-2-oxoindolin-5-yl)acetic acid] | 28% |  |  |
| O=C(O)Cc1ccc2c(c1)CC(=O)N2c1nc(-c2ccc(F)s2)nc2c1CCC2 [Compound No. 1-65, 2-(1-(2-(5-Fluorothiophen-2-yl)-6,7-dihydro-5H-cyclopenta[d]-pyrimidin-4-yl)-2-oxoindolin-5-yl)acetic acid] | 34% |  |  |
| COc1ccc(-c2nc3c(c(N4C(=O)Cc5cc(CC(=O)O)ccc54)n2)CCC3)cc1Cl [Compound No. 1-66, 2-(1-(2-(3-Chloro-4-methoxyphenyl)-6,7-dihydro-5H-cyclopenta[d]-pyrimidin-4-yl)-2-oxoindolin-5-yl)acetic acid] | 61% | 100 to 1000 nM |  |
| O=C(O)c1ccc2c(c1)oc(=O)n2-c1nc(-c2ccc(Cl)s2)nc2c1CCC2 [Compound No. 1-68, 3-(2-(5-Chlorothiophen-2-yl)-6,7-dihydro-5H-cyclopenta[d]pyrimidin-4-yl)-2-oxo-2,3-dihydrobenzo[d]oxazole-6-carboxylic acid] | 34% |  |  |
| O=C(O)c1ccc2c(c1)CC(=O)N2c1nc(-c2ccc(Cl)s2)nc2c1CCC2 [Compound No. 1-69, 1-(2-(5-Chlorothiophen-2-yl)-6,7-dihydro-5H-cyclopenta[d]pyrimidin-4-yl)-2-oxoindoline-5-carboxylic acid] | 61% | 100 to 1000 nM |  |
| O=C(O)c1ccc2c(ccn2-c2nc(-c3ccc(Cl)s3)nc3c2CCC3)c1 [Compound No. 1-70, 1-(2-(5-Chlorothiophen-2-yl)-6,7-dihydro-5H-cyclopenta[d]pyrimidin-4-yl)-1H-indole-5-carboxylic acid] | 61% | 100 to 1000 nM |  |
| O=C(O)Cc1ccc2c(ccn2-c2nc(-c3ccc(Cl)s3)nc3c2CCC3)c1 [Compound No. 1-71, 2-(1-(2-(5-Chlorothiophen-2-yl)-6,7-dihydro-5H-cyclopenta[d]pyrimidin-4-yl)-1H-indol-5-yl)acetic acid] | 64% | 100 to 1000 nM |  |
| O=C(O)c1ccc2c(c1)CCN2c1nc(-c2ccc(Cl)s2)nc2c1CCC2 [Compound No. 1-72, 1-(2-(5-Chlorothiophen-2-yl)-6,7-dihydro-5H-cyclopenta[d]pyrimidin-4-yl)indoline-5-carboxylic acid] | 59% | 100 to 1000 nM |  |
| O=C(O)c1ccc2c(cnn2-c2nc(-c3ccc(Cl)s3)nc3c2CCC3)c1 [Compound No. 1-73, 1-(2-(5-Chlorothiophen-2-yl)-6,7-dihydro-5H-cyclopenta[d]pyrimidin-4-yl)-1H-indazole-5-carboxylic acid] | 80% | 100 to 1000 nM |  |
| NC(=O)c1ccc(-c2nc3c(c(N4CCc5cc(CC(=O)O)ccc54)n2)CCC3)s1 [Compound No. 1-75, 2-(1-(2-(5-Carbamoylthiophen-2-yl)-6,7-dihydro-5H-cyclopenta[d]pyrimidin-4-yl)indolin-5-yl)acetic acid] | 101% | < 100 nM |  |
